Measured values from US20150190388A1, “PHARMACEUTICAL COMPOSITION OF MOXIFLOXACIN HYDROCHLORIDE AND PREPARATION METHOD” (RIVOPHARM SA, priority 2012, published 2015).
“Also recorded” adds a separate entry of the source. Structures can show the parent of a compound that is named as a salt.

Test: Stability of the anhydrous moxifloxacin hydrochloride to humidity and drying (XRPD, water content)
Type: physicochemical
Source text: The water contents of the moxifloxacin hydrochloride and of the excipients can be determined using any one of the analytical methods described in the prior art. For example, one may use of the Karl Fisher titration method as described in the European Pharmacopoeia Chapter 2.5.12 (Ph. Eur. 2.5.12) using the Metrohm 7012 KF Titrino® titrator.
The anhydrous moxifloxacin hydrochloride is exposed for several hours to a relative humidity of approximately 40%, which causes an increase in its water content. At the end of the exposure, the water content of the active ingredient is approximately 4% by weight. […] Such results illustrate the low stability of the anhydrous moxifloxacin hydrochloride in the presence of a humidity level of 40%. The conversion of the anhydrous moxifloxacin hydrochloride into a hydrate form becomes significant for a water content above 2%.

water content above which conversion of the anhydrous form into a hydrate form becomes significant: above 2%
water content after drying of the hydrate form obtained (drying for several hours): less than 1 % by weight
water content at the end of the exposure (exposed for several hours to a relative humidity of approximately 40%): approximately 4 % by weight
SMILES: COc1c(N2C[C@@H]3CCCN[C@@H]3C2)c(F)cc2c(=O)c(C(=O)O)cn(C3CC3)c12 [anhydrous moxifloxacin hydrochloride, 1-cyclopropyl-6-fluoro-1,4-dihydro-8-methoxy-7-[(4aS,7aS)-octahydro-6H-pyrrolo[3,4-b]pyridin-6-yl]-4-oxo-3-quinolinecarbolic acid]
polymorphic form by XRPD after drying of the hydrate form (drying for several hours, FIG. 2 curve 2): reconvert the hydrate formed into an anhydrous polymorphic form; also recorded: conversion into the starting anhydrous form
polymorphic form by XRPD after humidity exposure (several hours at relative humidity of approximately 40%, FIG. 2 curve 3): has a tendency to convert into hydrate; also recorded: converted into a hydrate polymorphic form
